The term viability denotes a read-out of living cells in per cent, often relative to untreated cells.

Each structure is given as a SMILES string.

The nature of the data set: in vitro. Conditions: human, hek293t cells.
Consider `C=CC(=O)NC[C@@H]1C=C[C@H]2C[C@@H]1CO2` (racemic) [1-I03, rac-N-{[(1R,2S,5S)-6-oxabicyclo[3.2.1]oct-3-en-2-yl]methyl}prop-2-enamide], for which the viability at 48 h, 25 µM came to 78.1%. The result for `C=CC(=O)N(Cc1cc2cccc(OC)c2o1)[C@@H]1C[C@H]2CC[C@@H]1O2` (racemic) [1-J13, rac-N-[(7-methoxy-1-benzofuran-2-yl)methyl]-N-[(1R,2S,4S)-7-oxabicyclo[2.2.1]heptan-2-yl]prop-2-enamide] reads 172%; that for `C=CC(=O)N(C)CC(=O)N1CCC[C@H](NC(=O)C(F)(F)F)[C@@H]1C` (racemic) [2-A20, rac-N-methyl-N-{2-[(2R,3R)-2-methyl-3-(2,2,2-trifluoroacetamido)piperidin-1-yl]-2-oxoethyl}prop-2-enamide], 96%; that for `C=CC(=O)N1CCC(C(=O)N[C@H]2CCO[C@H](c3ccccn3)C2)CC1` (racemic) [2-G15, rac-1-(prop-2-enoyl)-N-[(2R,4R)-2-(pyridin-2-yl)oxan-4-yl]piperidine-4-carboxamide], 66.9%. With `C=CC(=O)N[C@H]1CCCC[C@H]1c1ccnn1C` (racemic) [2-G18, rac-N-[(1R,2S)-2-(1-methyl-1H-pyrazol-5-yl)cyclohexyl]prop-2-enamide], the viability at 48 h, 25 µM turned out to be 103%.

As to `C=CC(=O)N1CCC(C(=O)N[C@H]2CCO[C@@H]2c2cccnc2)CC1` (racemic) [2-G20, rac-1-(prop-2-enoyl)-N-[(2R,3S)-2-(pyridin-3-yl)oxolan-3-yl]piperidine-4-carboxamide], the viability at 48 h, 25 µM came to 92.2%.

Turning to `C=CC(=O)N1CCC(C(=O)N[C@H]2CC[C@@H](CC#N)C2)CC1` (racemic) [2-G21, rac-N-[(1R,3S)-3-(cyanomethyl)cyclopentyl]-1-(prop-2-enoyl)piperidine-4-carboxamide], the viability at 48 h, 25 µM is 71.9%. The result for `C=CC(=O)N1CCC(C(=O)N[C@H]2CCCCCC[C@H]2C(=O)OC)CC1` (racemic) [2-H06, rac-methyl (1R,2S)-2-[1-(prop-2-enoyl)piperidine-4-amido]cyclooctane-1-carboxylate] reads 94.4%; that for `C=CC(=O)N1CCC(C(=O)N[C@@H]2CC[C@H](O)C2)(c2ccccc2)CC1` (racemic) [2-H16, rac-N-[(1R,3S)-3-hydroxycyclopentyl]-4-phenyl-1-(prop-2-enoyl)piperidine-4-carboxamide], 59.9%; that for `C=CC(=O)N1C[C@H](NC(C)=O)[C@@H](c2ccnn2C)C1` (racemic) [2-M16, rac-N-[(3R,4S)-4-(1-methyl-1H-pyrazol-5-yl)-1-(prop-2-enoyl)pyrrolidin-3-yl]acetamide], 96%.

Consider `C=CC(=O)Nc1ccc(C(=O)N[C@H]2COC[C@@H]2OC)cc1` (racemic) [3-C08, rac-N-[(3R,4S)-4-methoxyoxolan-3-yl]-4-(prop-2-enamido)benzamide], for which the viability at 48 h, 25 µM came out at 85.1%. As for `C=CC(=O)N(C)[C@H]1CS(=O)(=O)C[C@@H]1O` (racemic) [3-C15, rac-N-[(3R,4R)-4-hydroxy-1,1-dioxo-1lambda6-thiolan-3-yl]-N-methylprop-2-enamide], the viability at 48 h, 25 µM came to 46%.

`C=CC(=O)N1CCC(C(=O)N[C@H]2CC[C@@H]2O)(c2ccccc2)CC1` (racemic) [3-G08, rac-N-[(1R,2R)-2-hydroxycyclobutyl]-4-phenyl-1-(prop-2-enoyl)piperidine-4-carboxamide]: the viability at 48 h, 25 µM is 104%. As to `C=CC(=O)N[C@H]1CCO[C@@H]1c1ccnn1C(C)C` (racemic) [3-K05, rac-N-[(2R,3R)-2-[1-(propan-2-yl)-1H-pyrazol-5-yl]oxolan-3-yl]prop-2-enamide], the viability at 48 h, 25 µM came out at 52.7%. For `COCc1nnc([C@]23CC[C@H]2CCN3C(=O)C(C)Cl)o1` (mixture of isomers) [5-H15, rac-2-chloro-1-[(1R,5R)-1-[5-(methoxymethyl)-1,3,4-oxadiazol-2-yl]-2-azabicyclo[3.2.0]heptan-2-yl]propan-1-one], the viability at 48 h, 25 µM came out at 108%.

In the case of `CC(C)N1C(=O)C[C@H](NC(=O)CCl)[C@H]1c1ccc(Cl)c(F)c1` (racemic) [5-I11, rac-2-chloro-N-[(2R,3S)-2-(4-chloro-3-fluorophenyl)-5-oxo-1-(propan-2-yl)pyrrolidin-3-yl]acetamide], the viability at 48 h, 25 µM was determined as 0.807%. Consider `CC(Cl)C(=O)N[C@H]1CCC(=O)N[C@@H]1c1ccnn1C` (mixture of isomers) [6-B14, rac-2-chloro-N-[(2R,3R)-2-(1-methyl-1H-pyrazol-5-yl)-6-oxopiperidin-3-yl]propanamide], for which the viability at 48 h, 25 µM turned out to be 92.4%. Turning to `CCN1C(=O)CC[C@H](CNC(=O)C(C)Cl)[C@H]1c1cnn(C)c1` (mixture of isomers) [6-L13, rac-2-chloro-N-{[(2R,3S)-1-ethyl-2-(1-methyl-1H-pyrazol-4-yl)-6-oxopiperidin-3-yl]methyl}propanamide], the viability at 48 h, 25 µM was 100%. For `CC(Cl)C(=O)NC[C@H]1CCCN(C2CC2)[C@@H]1c1ccnn1C` (mixture of isomers) [6-P20, rac-2-chloro-N-{[(2R,3S)-1-cyclopropyl-2-(1-methyl-1H-pyrazol-5-yl)piperidin-3-yl]methyl}propanamide] the value was 101%; for `CC(Cl)C(=O)N[C@H]1CCO[C@@H]1c1nccn1-c1ccccc1` (mixture of isomers) [7-A12, rac-2-chloro-N-[(2R,3R)-2-(1-phenyl-1H-imidazol-2-yl)oxolan-3-yl]propanamide], 93.1%; for `CC(Cl)C(=O)N1C[C@@H]2CCC[C@@]2(c2nc(-c3cnccn3)no2)C1` (mixture of isomers) [7-C03, rac-1-[(3aR,6aR)-3a-[3-(pyrazin-2-yl)-1,2,4-oxadiazol-5-yl]-octahydrocyclopenta[c]pyrrol-2-yl]-2-chloropropan-1-one], 113%. The result for `CC(Cl)C(=O)N[C@H]1C[C@@H]1c1cnn(-c2ccccc2)c1` (mixture of isomers) [7-M08, rac-2-chloro-N-[(1R,2S)-2-(1-phenyl-1H-pyrazol-4-yl)cyclopropyl]propanamide] reads 76.7%; that for `CC(Cl)C(=O)N[C@H]1CN(Cc2ccccc2)C[C@@H]1c1ccccc1` (mixture of isomers) [7-N09, rac-N-[(3R,4S)-1-benzyl-4-phenylpyrrolidin-3-yl]-2-chloropropanamide], 88.2%.

Turning to `COC(=O)[C@H]1[C@@H](C(=O)CCl)C1(C)C` (racemic) [10-A11, rac-methyl (1R,3S)-3-(2-chloroacetyl)-2,2-dimethylcyclopropane-1-carboxylate], the viability at 48 h, 25 µM amounted to 74.8%. The result for `CC(C)(C)OC(=O)[C@H]1C[C@@H]1C(=O)CCl` (racemic) [10-C13, rac-tert-butyl (1R,2R)-2-(2-chloroacetyl)cyclopropane-1-carboxylate] reads 1.62%.

Regarding `C=CC(=O)NCC1CCN(S(=O)(=O)C(F)(F)F)CC1` [1-A03, N-[(1-trifluoromethanesulfonylpiperidin-4-yl)methyl]prop-2-enamide], the viability at 48 h, 25 µM stood at 83.3%.

Turning to `C=CC(=O)Nc1ccoc1C(=O)c1ccc(C)cc1` [1-A04, N-[2-(4-methylbenzoyl)furan-3-yl]prop-2-enamide], the viability at 48 h, 25 µM came out at 0.123%.

Regarding `C=CC(=O)NC1(c2ncon2)CC1` [1-A05, N-[1-(1,2,4-oxadiazol-3-yl)cyclopropyl]prop-2-enamide], the viability at 48 h, 25 µM worked out at 68.7%.

The values are drawn from paper PMC11995724, “Antibiotic target discovery by integrated phenotypic and activity-based profiling of electrophilic fragments” (Cell chemical biology, 2025).
